Data set [1] in a line: Metal chelating activity compound-Zn2+ complex formation at 10 to 200 uM preincubated for 2 mins followed by di-thizone addition by microplate reader based assay. To be noted: dose 10-200 µM.
Another data set has as its target Histone deacetylase 3 (Homo sapiens, UniProt O15379). Nature of the data set: Inhibition of recombinant HDAC3 (unknown origin) using Boc-Lys(acetyl)-AMC as substrate preincubated for 1 hr followed by substrate addition and measured after 2 hrs by fluorescence based assay.
For a further data set, the target named is Histone deacetylase 4 (Homo sapiens, UniProt P56524). Description: Inhibition of recombinant HDAC4 (unknown origin) using Boc-Lys(trifluoroacetyl)-AMC as substrate pre-incubated for 1 hr followed by substrate addition and measured after 2 hrs by fluorescence based assay.
Sequence of Histone deacetylase 4 (P56524 whole entry): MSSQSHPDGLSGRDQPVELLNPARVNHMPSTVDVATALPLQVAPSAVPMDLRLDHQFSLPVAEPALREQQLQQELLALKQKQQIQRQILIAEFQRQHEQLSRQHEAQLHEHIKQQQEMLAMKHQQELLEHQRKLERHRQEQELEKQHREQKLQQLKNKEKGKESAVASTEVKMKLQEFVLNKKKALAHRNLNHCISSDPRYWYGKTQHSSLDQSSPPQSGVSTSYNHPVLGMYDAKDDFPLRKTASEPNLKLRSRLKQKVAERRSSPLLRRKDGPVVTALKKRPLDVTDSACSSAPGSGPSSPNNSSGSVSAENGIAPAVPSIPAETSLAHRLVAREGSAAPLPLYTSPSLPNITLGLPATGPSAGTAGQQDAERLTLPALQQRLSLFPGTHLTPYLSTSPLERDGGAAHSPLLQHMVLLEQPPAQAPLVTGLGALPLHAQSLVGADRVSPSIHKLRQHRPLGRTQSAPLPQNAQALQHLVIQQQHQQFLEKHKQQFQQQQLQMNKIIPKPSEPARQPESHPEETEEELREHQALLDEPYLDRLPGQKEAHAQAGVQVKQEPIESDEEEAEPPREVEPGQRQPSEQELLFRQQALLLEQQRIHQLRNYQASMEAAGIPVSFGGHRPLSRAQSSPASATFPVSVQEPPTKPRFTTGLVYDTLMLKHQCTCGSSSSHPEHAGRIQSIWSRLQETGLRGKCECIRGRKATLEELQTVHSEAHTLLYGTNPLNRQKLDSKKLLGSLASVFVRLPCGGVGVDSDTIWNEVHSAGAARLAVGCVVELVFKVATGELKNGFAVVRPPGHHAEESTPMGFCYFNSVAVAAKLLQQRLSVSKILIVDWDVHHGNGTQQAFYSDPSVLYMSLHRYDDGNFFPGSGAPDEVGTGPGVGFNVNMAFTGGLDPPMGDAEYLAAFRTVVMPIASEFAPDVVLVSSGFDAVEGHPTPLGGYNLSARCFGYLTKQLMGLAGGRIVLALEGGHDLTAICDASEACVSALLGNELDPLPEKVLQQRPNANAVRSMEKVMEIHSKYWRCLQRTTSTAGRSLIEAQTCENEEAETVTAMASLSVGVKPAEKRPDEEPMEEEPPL
Data set [2] is filed under the species Homo sapiens. Description: Selectivity ratio of IC50 for recombinant HDAC1 (unknown origin) to IC50 for recombinant HDAC6 (unknown origin).
Data set [3] is described as follows: Antioxidant activity of compound assessed as trolox equivalent of AAPH radical scavenging activity at 2 to 4 uM preincubated for 15 mins followed by AAPH addition and measured every 2 mins for 90 mins by ORAC-fluorescein assay. Format: functional. To be noted: dose 2-4 µM, time 105.0 min.
Data set [4] is described as follows: Metal chelating activity assessed as compound-Cu2+ complex formation at 10 to 200 uM incubated for 2 mins followed by pyrocatechol violet addition and further incubated for 10 mins by microplate reader based assay. Conditions: dose 10-200 µM, time 12.0 min.
Data set [5] is described as follows: Metal chelating activity assessed as Fe2+ -ferrozoine complex formation at 10 to 200 uM preincubated for 2 mins followed by ferrozine addition and further incubated for 10 mins by microplate reader based assay. Conditions: dose 10-200 µM, time 12.0 min.
Data set [6] is filed under the species Homo sapiens. Description: Selectivity ratio of IC50 for recombinant HDAC7 (unknown origin) to IC50 for recombinant HDAC6 (unknown origin).
For another data set, the target named is Histone deacetylase 2 (Homo sapiens, UniProt Q92769). Description: Inhibition of recombinant HDAC2 (unknown origin) using Boc-Lys(Ac)-AMC as substrate pre-incubated for 1 hr followed by substrate addition and measured after 2 hrs by fluorescence based assay.
Sequence of Histone deacetylase 2 (Q92769 whole entry): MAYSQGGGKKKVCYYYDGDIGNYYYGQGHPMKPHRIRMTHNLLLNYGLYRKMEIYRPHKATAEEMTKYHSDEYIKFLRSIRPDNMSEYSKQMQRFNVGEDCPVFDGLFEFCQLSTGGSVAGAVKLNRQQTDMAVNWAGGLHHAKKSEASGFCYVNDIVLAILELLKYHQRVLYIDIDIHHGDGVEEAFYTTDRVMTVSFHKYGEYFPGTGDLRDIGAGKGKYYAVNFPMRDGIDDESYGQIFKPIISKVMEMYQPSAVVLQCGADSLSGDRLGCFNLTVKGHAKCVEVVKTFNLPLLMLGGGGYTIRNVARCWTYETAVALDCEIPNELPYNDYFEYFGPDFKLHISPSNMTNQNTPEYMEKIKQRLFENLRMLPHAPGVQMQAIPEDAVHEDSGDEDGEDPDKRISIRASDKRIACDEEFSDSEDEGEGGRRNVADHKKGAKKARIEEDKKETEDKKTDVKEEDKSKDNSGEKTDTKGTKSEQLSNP
Data set [7] is filed under the species Homo sapiens. Nature of the data set: Selectivity ratio of IC50 for recombinant HDAC8 (unknown origin) to IC50 for recombinant HDAC6 (unknown origin).
The species entered for data set [8] is Homo sapiens. Nature of the data set: Selectivity ratio of IC50 for recombinant HDAC2 (unknown origin) to IC50 for recombinant HDAC6 (unknown origin).
The species named for data set [9] is Homo sapiens. Description: Selectivity ratio of IC50 for recombinant HDAC4 (unknown origin) to IC50 for recombinant HDAC6 (unknown origin).
Another data set addresses Histone deacetylase 1 (Homo sapiens, UniProt Q13547). Description: Inhibition of recombinant HDAC1 (unknown origin) using Boc-Lys(Ac)-AMC as substrate pre-incubated for 1 hr followed by substrate addition and measured after 2 hrs by fluorescence based assay.
The nature of data set [10]: Neurotoxicity in mouse HT-22 cells assessed as cell survival at 10 uM incubated for 48 hrs by MTT assay. Format: cell-based. Conditions: ht-22, 48 h, 10 µM.
The species named for data set [11] is Homo sapiens. Description: Selectivity ratio of IC50 for recombinant HDAC3 (unknown origin) to IC50 for recombinant HDAC6 (unknown origin).
For data set [12], the system named is N9. Description: Immunomodulatory activity in LPS-induced mouse N9 microglial cells assessed as increase in TGF-beta2 expression at 0.1 to 5 uM incubated for 24 hrs by Western blot analysis. Format: functional. To be noted: dose 0.1-5 µM. On the technique in general: Immunoblotting shows a protein as a band on a membrane.
Data set [13] is filed under the species Homo sapiens. Nature of the data set: Selectivity ratio of IC50 for recombinant HDAC9 (unknown origin) to IC50 for recombinant HDAC6 (unknown origin).
Data set [14] has as its system N9. Nature of the data set: Immunomodulatory activity in LPS-induced mouse N9 microglial cells assessed as increase in TREM2 expression at 0.1 to 5 uM incubated for 24 hrs by Western blot analysis. The format is functional. To be noted: dose 0.1-5 µM.
In a further data set the target is T1, Histone deacetylase 7 (Homo sapiens, UniProt Q8WUI4).
T1 sequence (Q8WUI4 whole entry): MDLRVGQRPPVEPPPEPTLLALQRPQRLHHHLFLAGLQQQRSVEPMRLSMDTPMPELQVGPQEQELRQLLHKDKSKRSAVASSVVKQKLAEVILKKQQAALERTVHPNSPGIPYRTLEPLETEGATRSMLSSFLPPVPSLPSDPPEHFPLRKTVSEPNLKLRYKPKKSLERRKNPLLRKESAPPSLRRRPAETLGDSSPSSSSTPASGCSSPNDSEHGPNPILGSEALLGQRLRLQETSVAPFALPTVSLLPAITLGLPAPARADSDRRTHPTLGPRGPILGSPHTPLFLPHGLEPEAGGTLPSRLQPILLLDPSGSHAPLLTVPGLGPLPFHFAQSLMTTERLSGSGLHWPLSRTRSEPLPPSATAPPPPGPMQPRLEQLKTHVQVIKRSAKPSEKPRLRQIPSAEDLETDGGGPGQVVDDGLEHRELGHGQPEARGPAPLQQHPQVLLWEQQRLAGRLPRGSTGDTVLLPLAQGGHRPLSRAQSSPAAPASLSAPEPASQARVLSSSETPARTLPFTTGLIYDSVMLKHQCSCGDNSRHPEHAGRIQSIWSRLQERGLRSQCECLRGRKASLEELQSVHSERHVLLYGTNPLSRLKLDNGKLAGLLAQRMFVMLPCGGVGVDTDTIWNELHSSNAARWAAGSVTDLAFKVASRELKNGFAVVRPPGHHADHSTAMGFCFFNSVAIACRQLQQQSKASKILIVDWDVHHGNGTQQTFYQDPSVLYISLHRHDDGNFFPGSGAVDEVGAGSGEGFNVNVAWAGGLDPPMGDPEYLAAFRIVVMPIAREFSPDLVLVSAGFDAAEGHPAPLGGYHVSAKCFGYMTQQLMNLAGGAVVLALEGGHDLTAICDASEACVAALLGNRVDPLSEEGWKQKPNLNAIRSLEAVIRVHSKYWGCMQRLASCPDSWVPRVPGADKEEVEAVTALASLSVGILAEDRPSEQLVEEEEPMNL
Description: Inhibition of recombinant HDAC7 (unknown origin) using Boc-Lys(trifluoroacetyl)-AMC as substrate pre-incubated for 1 hr followed by substrate addition and measured after 2 hrs by fluorescence based assay.

Data set [15] can be described thus: Antioxidant activity assessed as DPPH radical scavenging activity incubated for 30 mins under dark condition by microplate reader based assay. The format is functional. In general terms: The DPPH test is a chemical assay of radical scavenging.

The values that follow come from ChEMBL document CHEMBL5036306 (J Med Chem, 2021).

The source made the active and inactive calls. No cut-off for these calls is given here. A value given as a limit tells only on which side of the number the result lay.

Sequence of Histone deacetylase 3 (O15379 whole entry): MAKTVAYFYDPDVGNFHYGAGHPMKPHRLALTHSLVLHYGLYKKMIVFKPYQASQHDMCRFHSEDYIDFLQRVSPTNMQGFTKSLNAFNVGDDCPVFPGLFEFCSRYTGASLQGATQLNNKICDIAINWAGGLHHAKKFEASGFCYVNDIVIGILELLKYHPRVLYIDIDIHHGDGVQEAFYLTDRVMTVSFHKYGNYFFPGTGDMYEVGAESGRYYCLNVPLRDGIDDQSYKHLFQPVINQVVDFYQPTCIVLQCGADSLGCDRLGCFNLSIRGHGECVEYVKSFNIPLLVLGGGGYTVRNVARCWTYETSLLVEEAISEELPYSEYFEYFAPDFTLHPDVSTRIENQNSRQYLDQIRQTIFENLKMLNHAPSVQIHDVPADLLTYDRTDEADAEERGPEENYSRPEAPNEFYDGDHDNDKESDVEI
Sequence of Histone deacetylase 1 (Q13547 whole entry): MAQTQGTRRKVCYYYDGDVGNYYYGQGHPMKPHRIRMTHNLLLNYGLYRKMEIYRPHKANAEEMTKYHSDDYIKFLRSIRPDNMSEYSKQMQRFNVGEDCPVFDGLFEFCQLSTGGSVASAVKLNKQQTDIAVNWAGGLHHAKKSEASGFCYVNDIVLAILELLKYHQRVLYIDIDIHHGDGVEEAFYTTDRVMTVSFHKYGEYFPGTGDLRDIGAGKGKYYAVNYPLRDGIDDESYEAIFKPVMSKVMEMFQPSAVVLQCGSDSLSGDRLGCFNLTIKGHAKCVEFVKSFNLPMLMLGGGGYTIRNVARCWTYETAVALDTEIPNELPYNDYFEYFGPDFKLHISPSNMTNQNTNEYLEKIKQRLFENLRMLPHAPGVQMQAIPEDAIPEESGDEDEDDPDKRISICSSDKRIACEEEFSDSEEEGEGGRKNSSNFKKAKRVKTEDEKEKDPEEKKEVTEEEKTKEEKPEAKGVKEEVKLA

`COc1ccc2[nH]cc(CCN(Cc3ccc(C(=O)NO)cc3)C(=O)/C=C/c3ccc(O)c(OC)c3)c2c1`: the result (in data set [1]; in [4]; in [5]; in the data set on N9 [12]; in the data set on N9 [14]) was Active. In addition, the IC50 on Histone deacetylase 3 was 1610 nM; at Histone deacetylase 4 (read-out: IC50), > 10000 nM; on Histone deacetylase 2, 2850 nM; on Histone deacetylase 1, 771 nM; at Histone deacetylase 7 it was > 10000 nM. The Ratio IC50 in the data set filed under Homo sapiens [2] is 25; in the data set listed under Homo sapiens [6], > 326; in the data set listed under Homo sapiens [7], 117; in the data set filed under Homo sapiens [8], 93; in the data set filed under Homo sapiens [9], > 326; in the data set filed under Homo sapiens [11], 53. Also, the Ratio IC50 in the data set filed under Homo sapiens [13] was > 326. Also, the ORAC antioxidant capacity (Trolox equivalents) in data set [3] was 2.1. Further, the Activity entry in data set [10] was “Non-Toxic”. Besides, in data set [15], the EC50 (in general, the concentration giving half of the maximal effect) amounted to 10800 nM.
`COc1ccc2c(c1)c(CCNC(C)=O)cn2Cc1ccc(C(=O)NO)cc1`: the outcome in [1], in data set [4] and in data set [5] was Active. Also, the IC50 at Histone deacetylase 3 is 641 nM; at Histone deacetylase 4 (read-out: IC50), 3430 nM; on Histone deacetylase 4 (read-out: pIC50 (converted)), 3390 nM; at Histone deacetylase 2, 336 nM; at Histone deacetylase 1 it was 262 nM; on Histone deacetylase 7, 1650 nM. The Ratio IC50 came out at 23 in the data set listed under Homo sapiens [2]; 148 in the data set listed under Homo sapiens [6]; 75 in the data set filed under Homo sapiens [7]; 30 in the data set listed under Homo sapiens [8]; 306 in the data set listed under Homo sapiens [9]; 57 in the data set listed under Homo sapiens [11]. Further, in the data set listed under Homo sapiens [13], the Ratio IC50 was determined as 32. Besides, the ORAC antioxidant capacity (Trolox equivalents) in data set [3] was 1.6. Also, the Activity result in data set [10] is reported as “Toxic”. Moreover, the outcome in the data set with N9 [12] and in the data set with N9 [14] was inactive. Further, the EC50 in data set [15] came to 56300 nM.
